The values below are quoted from earlier work in patent publication US20220218582A1, “METHOD FOR DYEING KERATINOUS MATERIAL, COMPRISING THE USE OF AN ORGANOSILICON COMPOUND, A CHROMOPHORIC COMPOUND, A MODIFIED FATTY ACID ESTER AND A SEALING REAGENT I” (Henkel AG & Co. KGaA, priority 2019, published 2022).

The conditions of this data set: 25° C.

With `O=C([O-])C1=NN(c2ccc(S(=O)(=O)[O-])cc2)C(=O)C1N=Nc1ccc(S(=O)(=O)[O-])cc1.[Na+].[Na+].[Na+]` (centres unmarked) [Acid Yellow 23, trisodium salt of 4,5-dihydro-5-oxo-1-(4-sulfophenyl)-4-((4-sulfophenyl)azo)-1H-pyrazole-3-carboxylic acid], the “solubility in water (in words)” value is “highly soluble”.

For the compound `O=C([O-])c1c(Cl)c(Cl)c(Cl)c(Cl)c1-c1c2c(Br)cc(=O)c(Br)c-2oc2c(Br)c(O)cc(Br)c12.O=C([O-])c1c(Cl)c(Cl)c(Cl)c(Cl)c1-c1c2c(Br)cc(=O)c(Br)c-2oc2c(Br)c(O)cc(Br)c12.[Na+].[Na+]` [Acid Red 92, disodium salt of 3,4,5,6-tetrachloro-2-(1,4,5,8-tetrabromo-6-hydroxy-3-oxoxanthen-9-yl)benzoic acid], the solubility in water result is listed as “greater than 10 g/L”. In the case of `Nc1cc(S(=O)(=O)[O-])cc2cc(S(=O)(=O)[O-])c(N=Nc3ccccc3)c(O)c12.[Na+].[Na+]` [Acid Red 33, disodium salt of 5-amino-4-hydroxy-3-(phenylazo)-naphthalene-2,7-disulphonate], the solubility in water is 2.5 mg/mL. As for “mixture of the sodium salts of mono- and disulfonic acids of 2-(2-quinolyl)-1H-indene-1,3(2H)-dione [Acid Yellow 3]”, the solubility in water was 20 mg/mL. Regarding `O=S(=O)([O-])c1ccc(N=Nc2c(O)ccc3ccccc23)cc1.[Na+]` [Acid Orange 7, sodium salt of 4-[(2-hydroxy-1-naphthyl)azo]benzene sulphonate], the solubility in water result is reported as “more than 7 g/L”.
